Experimental data as given in patent US20230322753A1, “HETEROARYL DERIVATIVE, METHOD FOR PREPARATION THEREOF, AND PHARMACEUTICAL COMPOSITION COMPRISING SAME AS ACTIVE INGREDIENT” (VORONOI INC., priority 2020, published 2023).

System: Ba/F3 cells expressing HER2 WT
Test: Ba/F3 proliferation suppression activity, cells expressing ErbB2 (HER2) wild type
Assay type: cell-based
Conditions: Mus musculus, BaF3, 72 hours, CellTiter-Glo
Experimental: (§1) For the Ba/F3 cells, a RPMI-1640 medium containing 10% FBS and 5 ng/ml IL-3 (R&D Systems) was used. The transduced Ba/F3 cells were cultured in a medium, which is same as the above medium, but 1 ug/ml puromycin (Invitrogen) was additionally added to.
(§2) 24 hours before the treatment of the cells with the compounds, 3000 to 5000 cells were distributed into each well of a white clear bottom 96 well plate (Corning). The compounds were diluted in a dimethyl sulfoxide (e.g. dilution ratio of 3:1 and total 12 concentrations) and then injected by 0.5 ul respectively, such that a final concentration amounted to 0.3 nM to 50 uM. 72 hours after the treatment with the compounds, the measurement of live cells was made in such way that these cells were stored for 10 minutes at a room temperature using a CellTiter-Glo luminescent cell-viability reagent (Promega) and then their luminescence intensities were measured using a reader (i.e. Synergy Neo, Biotek). Each test was repeated three times.
(§3) resulting values were calculated as a cell growth ratio (%) compared to a control. Then, the graphs were drawn and the […] values were calculated by using a program, GraphPad Prism version 5.0.

| SMILES | GI50 |
| --- | --- |
| C=CCN1CCN(c2cc(OC)c(Nc3cc(N4OCC[C@@H]4c4ccc(F)c(C(F)(F)F)c4)ncn3)cc2NC(=O)C=C)CC1 [Compound 41] | < 50 nM |
| C=CC(=O)Nc1cc(Nc2cc(N3OCC[C@@H]3c3ccc(F)c(C(F)(F)F)c3)ncn2)c(OC)cc1N1CCC(N2CCN(C3CC3)[C@@H](C)C2)CC1 [Compound 52] | < 50 nM |
| C=CC(=O)Nc1cc(Nc2cc(N3OCC[C@@H]3c3ccc(F)c(C(F)(F)F)c3)ncn2)c(OC)cc1N1CCN(CCC)CC1 [Compound 55] | < 50 nM |

System: Ba/F3 cells expressing EGFR Exon20 ins NPH
Test: Ba/F3 proliferation suppression activity, cells expressing EGFR Exon20 ins NPH
Assay type: cell-based
Conditions: Mus musculus, BaF3, 72 hours, CellTiter-Glo
Experimental: A following experiment was carried out to evaluate the suppression activity of the compounds according to the present invention against the proliferation of Ba/F3 which expresses EGFR mutations.
as §1, §2, §3

| GI50 | SMILES |
| --- | --- |
| < 50 nM | C=CC(=O)Nc1cc(Nc2cc(N3OCC[C@@H]3c3cccc(C(F)(F)F)c3F)ncn2)c(OC)cc1N1CCN(C)CC1 [Compound 60] |
| < 50 nM | C=CC(=O)Nc1cc(Nc2cc(N3OCC[C@@H]3c3cccc(C(F)(F)F)c3F)ncn2)c(OC)cc1N1CCC(N2CCN(C3CC3)CC2)CC1 [Compound 62] |
| < 50 nM | C=CC(=O)Nc1cc(Nc2cc(N3OCC[C@@H]3c3cccc(C(F)(F)F)c3F)ncn2)c(OC)cc1N1CCC(N2CCOCC2)CC1 [Compound 66] |
| 50 to 500 nM | C=CC(=O)Nc1cc(Nc2cc(N3OCC[C@@H]3c3cccc(C(F)(F)F)c3F)ncn2)c(OC)cc1N1CCC(N2CCN(C3CC3)[C@@H](C)C2)CC1 [Compound 67] |
| 50 to 500 nM | C=CC(=O)Nc1cc(Nc2cc(N3OCC[C@@H]3c3cccc(C(F)(F)F)c3F)ncn2)c(OC)cc1N1CCC(N2CCN(C3CC3)[C@H](C)C2)CC1 [Compound 68] |
| < 50 nM | C=CC(=O)Nc1cc(Nc2cc(N3OCC[C@@H]3c3cccc(C(F)(F)F)c3F)ncn2)c(OC)cc1N1CCN(C2COC2)CC1 [Compound 69] |
| < 50 nM | C=CC(=O)Nc1cc(Nc2cc(N3OCC[C@@H]3c3cccc(C(F)(F)F)c3F)ncn2)c(OC)cc1N1CCC(N2CCC2)CC1 [Compound 71] |
| < 50 nM | C=CC(=O)Nc1cc(Nc2cc(N3OCC[C@@H]3c3cccc(C(F)(F)F)c3F)ncn2)c(OC)cc1N1CCC(N2C[C@@H](C)O[C@@H](C)C2)CC1 [Compound 73] |
| 50 to 500 nM | C=CC(=O)Nc1cc(Nc2cc(N3OCC[C@@H]3c3cccc(C(F)(F)F)c3F)ncn2)c(OC)cc1N1CCC(N2CCN(C)C(=O)C2)CC1 [Compound 74] |
| 50 to 500 nM | C=CC(=O)Nc1cc(Nc2cc(N3OCC[C@@H]3c3cccc(C(F)(F)F)c3F)ncn2)c(OC)cc1N1CCC(N2CCCN(C3CC3)CC2)CC1 [Compound 77] |
| < 50 nM | C=CC(=O)Nc1cc(Nc2cc(N3OCC[C@@H]3c3cccc(C(F)(F)F)c3F)ncn2)c(OC)cc1N1CCC(N2CCN(C(C)C)CC2)CC1 [Compound 78] |
| < 50 nM | C=CC(=O)Nc1cc(Nc2cc(N3OCC[C@@H]3c3cccc(C(F)(F)F)c3F)ncn2)c(OC)cc1N1CCN(C)[C@H](C)C1 [Compound 80] |
| 50 to 500 nM | C=CC(=O)Nc1cc(Nc2cc(N3OCC[C@@H]3c3cccc(C(F)(F)F)c3F)ncn2)c(OC)cc1N1CCN(C2CC2)CC1 [Compound 81] |

More lines, now with the values behind:

| SMILES | GI50 |
| --- | --- |
| C=CC(=O)Nc1cc(Nc2cc(N3OCC[C@@H]3c3cc(F)cc(C(F)(F)F)c3)ncn2)c(OC)cc1N1CCC(N2CCN(C3CC3)CC2)CC1 [Compound 1] | < 50 nM |
| C=CC(=O)Nc1cc(Nc2cc(N3OCC[C@@H]3c3ccc(F)c(C(F)(F)F)c3)ncn2)c(OC)cc1N1CCN(C)CC1 [Compound 37] | < 50 nM |
| C=CCN1CCN(c2cc(OC)c(Nc3cc(N4OCC[C@@H]4c4ccc(F)c(C(F)(F)F)c4)ncn3)cc2NC(=O)C=C)CC1 [Compound 41] | < 50 nM |
| C=CC(=O)Nc1cc(Nc2cc(N3OCC[C@@H]3c3ccc(F)c(C(F)(F)F)c3)ncn2)c(OC)cc1N1CCC(N2CCN(C3CC3)[C@@H](C)C2)CC1 [Compound 52] | < 50 nM |
| C=CC(=O)Nc1cc(Nc2cc(N3OCC[C@@H]3c3ccc(F)c(C(F)(F)F)c3)ncn2)c(OC)cc1N1CCC(N2CCN(C3CC3)[C@H](C)C2)CC1 [Compound 53] | < 50 nM |
| C=CC(=O)Nc1cc(Nc2cc(N3OCC[C@@H]3c3ccc(F)c(C(F)(F)F)c3)ncn2)c(OC)cc1N1CCN(CCC)CC1 [Compound 55] | < 50 nM |
| C=CC(=O)Nc1cc(Nc2cc(N3OCC[C@@H]3c3ccc(F)c(C(F)(F)F)c3)ncn2)c(OC)cc1N1CCC(N2CCO[C@@H](C)C2)CC1 [Compound 58] | < 50 nM |
| C=CC(=O)Nc1cc(Nc2cc(N3OCC[C@@H]3c3cccc(C(F)(F)F)c3F)ncn2)c(OC)cc1N(C)CCN(C)C [Compound 61] | < 50 nM |
| C=CC(=O)Nc1cc(Nc2cc(N3OCC[C@@H]3c3cccc(C(F)(F)F)c3F)ncn2)c(OC)cc1OCCN(C)C [Compound 70] | < 50 nM |
| C=CC(=O)Nc1cc(Nc2cc(N3OCC[C@@H]3c3cccc(C(F)(F)F)c3F)ncn2)c(OC)cc1N1CCC[C@@H]1CN1CCC1 [Compound 72] | 50 to 500 nM |
| C=CC(=O)Nc1cc(Nc2cc(N3OCC[C@@H]3c3cccc(C(F)(F)F)c3F)ncn2)c(OC)cc1N1CCO[C@@H](C)C1 [Compound 75] | 50 to 500 nM |
| C=CC(=O)Nc1cc(Nc2cc(N3OCC[C@@H]3c3cccc(C(F)(F)F)c3F)ncn2)c(OC)cc1N1CCN(C)[C@@H](C)C1 [Compound 76] | < 50 nM |
| C=CC(=O)Nc1cc(Nc2cc(N3OCC[C@@H]3c3cccc(C(F)(F)F)c3F)ncn2)c(OC)cc1N1CCO[C@H](C)C1 [Compound 79] | 50 to 500 nM |

System: Ba/F3 cells expressing HER2 YVMA Exon 20ins
Test: Ba/F3 proliferation suppression activity, cells expressing HER2 YVMA Exon 20ins
Assay type: cell-based
Conditions: Mus musculus, BaF3, 72 hours, CellTiter-Glo
Experimental: as §1, §2, §3

| GI50 | SMILES |
| --- | --- |
| < 50 nM | C=CC(=O)Nc1cc(Nc2cc(N3OCC[C@@H]3c3cccc(C(F)(F)F)c3F)ncn2)c(OC)cc1N1CCN(C)CC1 [Compound 60] |
| < 50 nM | C=CC(=O)Nc1cc(Nc2cc(N3OCC[C@@H]3c3cccc(C(F)(F)F)c3F)ncn2)c(OC)cc1N1CCC(N2CCN(C3CC3)CC2)CC1 [Compound 62] |

More lines, now with the values behind:

| SMILES | GI50 |
| --- | --- |
| C=CC(=O)Nc1cc(Nc2cc(N3OCC[C@@H]3c3cc(F)cc(C(F)(F)F)c3)ncn2)c(OC)cc1N1CCC(N2CCN(C3CC3)CC2)CC1 [Compound 1] | 50 to 500 nM |
| C=CC(=O)Nc1cc(Nc2cc(N3OCC[C@@H]3c3ccc(F)c(C(F)(F)F)c3)ncn2)c(OC)cc1N1CCN(C)CC1 [Compound 37] | < 50 nM |
| C=CCN1CCN(c2cc(OC)c(Nc3cc(N4OCC[C@@H]4c4ccc(F)c(C(F)(F)F)c4)ncn3)cc2NC(=O)C=C)CC1 [Compound 41] | < 50 nM |
| C=CC(=O)Nc1cc(Nc2cc(N3OCC[C@@H]3c3ccc(F)c(C(F)(F)F)c3)ncn2)c(OC)cc1N1CCC(N2CCN(C3CC3)[C@@H](C)C2)CC1 [Compound 52] | < 50 nM |
| C=CC(=O)Nc1cc(Nc2cc(N3OCC[C@@H]3c3ccc(F)c(C(F)(F)F)c3)ncn2)c(OC)cc1N1CCC(N2CCN(C3CC3)[C@H](C)C2)CC1 [Compound 53] | < 50 nM |
| C=CC(=O)Nc1cc(Nc2cc(N3OCC[C@@H]3c3ccc(F)c(C(F)(F)F)c3)ncn2)c(OC)cc1N1CCN(CCC)CC1 [Compound 55] | < 50 nM |
| C=CC(=O)Nc1cc(Nc2cc(N3OCC[C@@H]3c3ccc(F)c(C(F)(F)F)c3)ncn2)c(OC)cc1N1CCC(N2CCO[C@@H](C)C2)CC1 [Compound 58] | < 50 nM |
| C=CC(=O)Nc1cc(Nc2cc(N3OCC[C@@H]3c3cccc(C(F)(F)F)c3F)ncn2)c(OC)cc1N(C)CCN(C)C [Compound 61] | < 50 nM |
